{"source": "patent US12629370B2", "about": "“Treatment of prostate cancer” (Sumitomo Pharma Co., Ltd., priority 2016, dated 2026)", "type_in_all_cases": "in vivo, human", "key": {"FSH": {"system": "FSH", "test": "Example 9: FSH", "method": "(§1) Eligible male patients were aged ≥18 years with a histologically confirmed diagnosis of localized, intermediate-risk prostate cancer, for whom 6-month neoadjuvant and adjuvant androgen deprivation therapy (ADT) to external beam radiation therapy (EBRT) was indicated. The criteria for establishing intermediate-risk prostate cancer included the presence of one of the following, without any high-risk feature: T2b-T2c disease, Gleason score 7, or prostate-specific antigen (PSA) 10-20 ng/mL. Additional inclusion criteria included: EBRT scheduled to begin ≥12 weeks after baseline visit; screening serum testosterone >150 ng/dL (5.2 nmol/L); screening PSA concentration >2 ng/ml; body mass index ≥18.0 at screening or baseline (i.e., the subject's BMI prior to treatment commencing); Eastern Cooperative Oncology Group performance status of 0 or 1 at screening. Based on investigator discretion and clinical assessment of the patient's overall medical and disease status, participation was allowed for older patients with high-risk disease (e.g., based on Gleason score or tumor status) who were deemed likely to benefit from 6 months of neoadjuvant/adjuvant ADT. Most patients had intermediate-risk disease. However, a few patients, based on Gleason score or tumor, node, and metastasis staging system, were technically of higher than intermediate risk.\n(§2) Both treatment arms received treatment for 24 weeks. Patients remained on treatment for at least 12 weeks before the start of external beam radiation treatment (EBRT), which was initiated for most patients between Week 13, Day 1 and Week 15, Day 1. EBRT began no later than day 1, week 17.\n(§3) Patients were evaluated every 4 weeks during the treatment period (including day 1, week 25), at end of treatment (defined as week 29), during follow-up (week 33), and at end of study (EOS).\n(§4) Samples for testosterone, luteinizing hormone (LH), FSH, and PSA concentrations were taken at screening, on day 1 of the first week (additionally days 2 and 4 for testosterone and LH), and on day 1 of weeks 2, 3, 5, 9, 13, 17, 21, 25, 29, 33, and 37 thereafter. […] Suppression of FSH was less profound than that of LH, but consistent with the literature, and was greater than that observed with GnRH agonists."}, "LH": {"system": "LH", "test": "Example 9: LH", "method": "(§5) Eligible male patients were aged ≥18 years with a histologically confirmed diagnosis of localized, intermediate-risk prostate cancer, for whom 6-month neoadjuvant and adjuvant androgen deprivation therapy (ADT) to external beam radiation therapy (EBRT) was indicated. The criteria for establishing intermediate-risk prostate cancer included the presence of one of the following, without any high-risk feature: T2b-T2c disease, Gleason score 7, or prostate-specific antigen (PSA) 10-20 ng/mL. […] Based on investigator discretion and clinical assessment of the patient's overall medical and disease status, participation was allowed for older patients with high-risk disease (e.g., based on Gleason score or tumor status) who were deemed likely to benefit from 6 months of neoadjuvant/adjuvant ADT.\nBoth treatment arms received treatment for 24 weeks. […] EBRT began no later than day 1, week 17.\nas §3\n(§6) Samples for testosterone, luteinizing hormone (LH), FSH, and PSA concentrations were taken at screening, on day 1 of the first week (additionally days 2 and 4 for testosterone and LH), and on day 1 of weeks 2, 3, 5, 9, 13, 17, 21, 25, 29, 33, and 37 thereafter."}, "serum testosterone": {"system": "serum testosterone", "test": "Example 9: serum testosterone, castration and recovery, neoadjuvant/adjuvant ADT to EBRT, versus degarelix", "details": "for Percent recovery (95% CI) to baseline testosterone or >280 ng/dL: 12 weeks from last dose", "method": "as §5\nBoth treatment arms received treatment for 24 weeks. […] EBRT began no later than day 1, week 17. […]\nas §6"}, "[1]": {"system": "patients with intermediate-risk prostate cancer", "test": "Example 9: quality of life (EORTC QLQ-C30, QLQ-PR25, AMS)", "method": "as §1, §2\nQuality of Life (QoL) was assessed via the core 30-item European Organisation for Research and Treatment of Cancer quality of life questionnaire (EORTC QLQ-C30), the 25-item prostate cancer module EORTC questionnaire (EORTC QLQ-PR25), and the aging male survey (AMS). QoL assessments were completed at screening, on day 1 of weeks 1, 5, 13, and 25, and at weeks 29, 33, and 37."}, "PSA": {"system": "PSA", "test": "Example 9: PSA", "method": "as §1, §2, §3, §4"}, "[2]": {"details": "subjects with at least 24 weeks of treatment"}, "[3]": {"details": "from baseline (day 1) to week 25"}}, "note": "Where a SMILES comes first, the peptide text is derived from it. [ ]: non-standard residue; d: D form. The star is where a group is joined. dPhe(4-NHCONH2) = NC(=O)Nc1ccc(C[C@@H](N)C(=O)O)cc1; Dihydroorotyl(S) = O=C1C[C@@H](C(=O)*)NC(=O)N1; dPhe(4-Cl) = N[C@H](Cc1ccc(Cl)cc1)C(=O)O; Phe(4-NH2) = Nc1ccc(C[C@H](N)C(=O)O)cc1; d2Nal = N[C@H](Cc1ccc2ccccc2c1)C(=O)O; Lys(iPr) = CC(C)NCCCC[C@H](N)C(=O)O; d3Pal = N[C@H](Cc1cccnc1)C(=O)O"}
{"smiles": "CC(=O)N[C@H](Cc1ccc2ccccc2c1)C(=O)N[C@H](Cc1ccc(Cl)cc1)C(=O)N[C@H](Cc1cccnc1)C(=O)N[C@@H](CO)C(=O)N[C@@H](Cc1ccc(NC(=O)[C@@H]2CC(=O)NC(=O)N2)cc1)C(=O)N[C@H](Cc1ccc(NC(N)=O)cc1)C(=O)N[C@@H](CC(C)C)C(=O)N[C@@H](CCCCNC(C)C)C(=O)N1CCC[C@H]1C(=O)N[C@H](C)C(N)=O", "note": "[Degarelix, degarelix, reference compound] (Ac-[d2Nal][dPhe(4-Cl)][d3Pal]S[Phe(4-NH2)](Dihydroorotyl(S))[dPhe(4-NHCONH2)]L[Lys(iPr)]P[dA]-NH2)", "values": [{"measurement": "FSH level before administration", "setting": "FSH; Baseline", "value": 11.716, "unit": "IU/L"}, {"measurement": "FSH level", "setting": "FSH; Week 2, Day 1", "value": 2.519, "unit": "IU/L"}, {"measurement": "mean FSH level", "setting": "FSH; Week 25, Day 1", "value": 1.471, "unit": "IU/L"}, {"measurement": "Median LH", "setting": "LH; Baseline", "value": 4.8, "unit": "mlU/mL"}, {"measurement": "LH level", "setting": "LH; Day 4", "value": 0.499, "unit": "mIU/mL"}, {"measurement": "Median LH", "setting": "LH; Week 24", "value": 0.1, "unit": "mlU/mL"}, {"measurement": "mean LH level", "setting": "LH; Week 25, Day 1", "value": 0.342, "unit": "IU/L"}, {"measurement": "Median LH", "setting": "LH; Week 28/EOT visit", "value": 0.2, "unit": "mlU/mL"}, {"measurement": "Median LH", "setting": "LH; Week 32/follow-up", "value": 0.5, "unit": "mlU/mL"}, {"measurement": "Median LH", "setting": "LH; Week 36/EOS", "value": 1.4, "unit": "mlU/mL"}, {"measurement": "Kaplan-Meier estimate (95% CI) of testosterone recovery, probability of event", "setting": "serum testosterone; 4 weeks from last dose", "value": "0.00 (0.00.0.00)"}, {"measurement": "Kaplan-Meier estimate (95% CI) of testosterone recovery, probability of event", "setting": "serum testosterone; 8 weeks from last dose", "value": "0.00 (0.00.0.00)"}, {"measurement": "patients whose serum testosterone met the definition of recovery", "setting": "serum testosterone; 12-week follow-up", "value": "6 of 38"}, {"measurement": "Percent recovery (95% CI) to baseline testosterone or >280 ng/dL", "setting": "serum testosterone", "value": "5.3 (0.6.17.7) %"}, {"measurement": "Percent recovery (95% CI) to baseline testosterone or >280 ng/dL", "setting": "serum testosterone; listed as degarelix", "value": 5.3, "unit": "%"}, {"measurement": "Median testosterone", "setting": "serum testosterone; Baseline", "value": 403.8, "unit": "ng/dL"}, {"measurement": "Testosterone Median", "setting": "serum testosterone; Baseline", "value": 14.020, "unit": "nmol/L"}, {"measurement": "Testosterone Mean (Std Dev)", "setting": "serum testosterone; Baseline, Compound 1 120 mg QD or degarelix 80 mg Q4W", "value": "14.567 (5.5680) nmol/L"}, {"measurement": "Testosterone Mean (Std Dev)", "setting": "serum testosterone; EOS", "value": "3.038 (4.0224) nmol/L"}, {"measurement": "Testosterone Median", "setting": "serum testosterone; EOS", "value": 1.040, "unit": "nmol/L"}, {"measurement": "Testosterone Mean (Std Dev)", "setting": "serum testosterone; EOT", "value": "0.576 (1.2218) nmol/L"}, {"measurement": "Testosterone Median", "setting": "serum testosterone; EOT", "value": 0.335, "unit": "nmol/L"}, {"measurement": "Testosterone Mean (Std Dev)", "setting": "serum testosterone; Follow-Up", "value": "1.206 (1.9330) nmol/L"}, {"measurement": "Testosterone Median", "setting": "serum testosterone; Follow-Up", "value": 0.560, "unit": "nmol/L"}, {"measurement": "Median testosterone", "setting": "serum testosterone; Week 24", "value": 8.9, "unit": "ng/dL"}, {"measurement": "Testosterone Mean (Std Dev)", "setting": "serum testosterone; Week 25, Day 1", "value": "0.582 (1.5107) nmol/L"}, {"measurement": "Testosterone Median", "setting": "serum testosterone; Week 25, Day 1", "value": 0.310, "unit": "nmol/L"}, {"measurement": "Median testosterone", "setting": "serum testosterone; Week 28/EOT visit", "value": 9.6, "unit": "ng/dL"}, {"measurement": "Median testosterone", "setting": "serum testosterone; Week 32/follow-up", "value": 16.1, "unit": "ng/dL"}, {"measurement": "Median testosterone", "setting": "serum testosterone; Week 36/EOS", "value": 30.0, "unit": "ng/dL"}, {"measurement": "patients recovered to baseline testosterone or greater than 280 ng/dL", "setting": "serum testosterone; end of 12-week follow-up", "value": 6, "unit": "%"}, {"measurement": "median serum testosterone", "setting": "serum testosterone; end of study visit", "value": "< 50", "unit": "ng/dL"}, {"measurement": "Median time to medical castration (≤50 ng/dL)", "setting": "serum testosterone; in vivo", "value": 3, "unit": "days"}, {"measurement": "Median time to profound castration (≤20 ng/dL)", "setting": "serum testosterone; in vivo", "value": 12, "unit": "days"}, {"measurement": "medical castration rate (less than 50 ng/dL)", "setting": "serum testosterone; over 24 weeks, overall", "value": 89, "unit": "%"}, {"measurement": "profound castration rate (less than 20 ng/dL)", "setting": "serum testosterone; over 24 weeks, overall", "value": 68, "unit": "%"}, {"measurement": "Testosterone recovery (baseline or >280 ng/dL): number with events", "setting": "serum testosterone; overall safety population", "value": "6 (16) n (%)"}, {"measurement": "Testosterone recovery: number censored", "setting": "serum testosterone; overall safety population", "value": "32 (84) n (%)"}, {"measurement": "Time to testosterone recovery, 25th percentile (95% CI)", "setting": "serum testosterone; overall safety population", "value": "100 (87.106) days"}, {"measurement": "Time to testosterone recovery, 75th percentile (95% CI)", "setting": "serum testosterone; overall safety population", "value": "106 (100.106) days"}, {"measurement": "Time to testosterone recovery, Median (95% CI)", "setting": "serum testosterone; overall safety population", "value": "100 (100.106) days"}, {"measurement": "Time to testosterone recovery, Median (95% CI)", "setting": "serum testosterone; overall safety population, listed as degarelix", "value": "100 (100, 106) days"}, {"measurement": "medical castration rate (less than 50 ng/dL)", "setting": "serum testosterone; [2]", "value": 86, "unit": "%"}, {"measurement": "profound castration rate (less than 20 ng/dL)", "setting": "serum testosterone; [2]", "value": 71, "unit": "%"}, {"measurement": "Global health/QoL, Mean (SD) change", "setting": "[1]; [3]", "value": "−7.5 (13.7)"}, {"measurement": "Hormonal treatment-related symptoms, Mean (SD) change", "setting": "[1]; [3]", "value": "12.9 (10.4)"}, {"measurement": "Sexual activity, Mean (SD) change", "setting": "[1]; [3]", "value": "−11.8 (36.3)"}, {"measurement": "Global health/QoL, Mean (SD) change", "setting": "[1]; from baseline to week 36 (EOS)", "value": "−6.8 (16.0)"}, {"measurement": "Hormonal treatment-related symptoms, Mean (SD) change", "setting": "[1]; from baseline to week 36 (EOS)", "value": "11.7 (10.2)"}, {"measurement": "Sexual activity, Mean (SD) change", "setting": "[1]; from baseline to week 36 (EOS)", "value": "−5.3 (34.7)"}, {"measurement": "Global health/QoL, Mean (SD) change", "setting": "[1]; from week 25 to week 36", "value": "0.7 (15.5)"}, {"measurement": "Hormonal treatment-related symptoms, Mean (SD) change", "setting": "[1]; from week 25 to week 36", "value": "−1.2 (9.1)"}, {"measurement": "Sexual activity, Mean (SD) change", "setting": "[1]; from week 25 to week 36", "value": "6.6 (22.8)"}, {"measurement": "Median PSA", "setting": "PSA; Baseline", "value": 7.3, "unit": "µg/L"}, {"measurement": "Median PSA", "setting": "PSA; Week 24", "value": 0.1, "unit": "µg/L"}, {"measurement": "Median PSA", "setting": "PSA; Week 28/EOT visit", "value": 0.07, "unit": "µg/L"}, {"measurement": "Median PSA", "setting": "PSA; Week 32/follow-up", "value": 0.07, "unit": "µg/L"}, {"measurement": "Median PSA", "setting": "PSA; Week 36/EOS", "value": 0.07, "unit": "µg/L"}, {"measurement": "patients achieving PSA values less than 0.2 ng/ml", "setting": "PSA; by the end of 12 weeks", "value": "1 of 20"}]}
